The values that follow come from patent US20250302746A1, “METHOD FOR PRODUCING EMULSIFIED COMPOSITION” (Daicel Corporation, priority 2022, published 2025).

This series is described as follows: Test Example 4: transmittance of emulsified composition (660 nm, optical path 10 mm). The series is classed as physicochemical. To be noted: balance glycerol, heated 120° C. 3 min, 15000 rpm. How it is done: The transmittance of the emulsified composition produced in this example was determined as a transmittance for light having a wave length of 660 nm at a measurement optical path length of 10 mm using an ultraviolet-visible spectrophotometer UV-1800 (manufactured by Shimadzu Corporation). In the following test, a case where the transmittance was less than 40% was indicated by “C”, a case where the transmittance was 40% or greater and less than 80% was indicated by “B”, and a case where the transmittance was 80% or greater was indicated by “A”.
A solution having a composition of parts by weight shown in Table 4 (a solution in which the balance is glycerol and the total is 100 parts by weight) was prepared and heated at 120° C. for 3 minutes using a block heater. During being heated, the solution was mixed using a polytron homogenizer at 15000 rpm. Thereafter, the solution was allowed to stand at room temperature (about 25° C.) and the temperature of the solution was lowered to room temperature (about 25° C.) to produce an emulsified composition, and the transmittance was measured.

[1] abbreviates: urolithin 0.5, RYOTO polyglyester L-7D (HLB 17.0) 50 parts by weight.
The mark [2] stands for this setting: urolithin 0.1, RYOTO polyglyester L-7D (HLB 17.0) 50 parts by weight.

On to urolithin M8, for which the Transmittance results under setting [1] is reported as “A (the transmittance was 80% or greater)”.
As for `O=c1oc2c(O)c(O)ccc2c2c(O)c(O)c(O)cc12` [Urolithin M5, urolithin M5], the Transmittance results under setting [2] is given as “A (the transmittance was 80% or greater)”.
On to `O=c1oc2cc(O)ccc2c2c(O)c(O)c(O)cc12` [Urolithin M6, urolithin M6], for which the Transmittance results under setting [1] is reported as “A (the transmittance was 80% or greater)”.
Take `O=c1oc2cc(O)ccc2c2cc(O)ccc12` [Isourolithin A, isourolithin A]: the Transmittance results under setting [1] is “B (the transmittance was 40% or greater and less than 80%)”.
Turning to `O=c1oc2cc(O)ccc2c2c(O)cc(O)cc12` [Urolithin M7, urolithin M7], the Transmittance results under setting [2] was “A (the transmittance was 80% or greater)”.
Take `O=c1oc2cc(O)ccc2c2cc(O)c(O)cc12` [Urolithin C, urolithin C]: the Transmittance results under setting [2] is on record as “A (the transmittance was 80% or greater)”.
Consider `O=c1oc2cc(O)ccc2c2ccccc12` [Urolithin B, urolithin B], for which the Transmittance results (urolithin 1.0, RYOTO polyglyester L-7D (HLB 17.0) 50 parts by weight) is recorded as “A (the transmittance was 80% or greater)”.
